{"source": "patent US12545896B2", "about": "“Growth inhibitor” (Orizuru Therapeutics, Inc., priority 2019, dated 2026)", "key": {"[1]": {"system": "insulin-producing cell population obtained by the differentiation from iPS cells (CHGA-negative cells; insulin-positive and NKX6.1-positive cells)", "test": "Flow cytometry of insulin-producing cell population treated with PLK inhibitor for last 4 days of differentiation (Example 1)", "type": "cell-based", "details": "3 μM; for Proportion of CHGA-negative and Ki67-negative cells / Proportion of CHGA-negative and Ki67-positive cells / Proportion of insulin-positive and NKX6.1-positive cells: 4 days treatment, flow cytometry", "excerpt": "The number of CHGA-negative (and Ki67-positive or Ki67-negative) cells in the cell population obtained by each of the above methods 1) and 2) was counted by flow cytometry to determine the proportion of unintended cells, that is, a CHGA-negative (and Ki67-positive or Ki67-negative) rate, in each cell population.\nThe number of insulin-positive and NKX6.1-positive cells in the cell population obtained by each of the above methods 1) and 2) was counted by flow cytometry to determine the proportion of the cells of interest, that is, insulin-positive and NKX6.1-positive cells, in each method."}, "[2]": {"system": "insulin-producing cell population obtained by the differentiation from iPS cells (CHGA-negative cells; insulin-positive and NKX6.1-positive cells)", "test": "Insulin-producing cell population treated with PLK inhibitor for 7 days in 30 mL reactor for culture (Example 2)", "type": "cell-based", "details": "3 μM, 7 days treatment", "description": "Specifically, the endocrine progenitor cell population obtained by the differentiation from iPS cells was cultured for 4 days in a medium for induction of differentiation in a 30 mL reactor for culture and thereby differentiated into an insulin-producing cell population.\nFor a control, the endocrine progenitor cell population obtained by the differentiation from iPS cells was cultured for 11 days in a medium for induction of differentiation in a 30 mL reactor for culture and thereby differentiated into an insulin-producing cell population."}, "[3]": {"details": "last 4 days of differentiation into insulin-producing cells"}}}
{"smiles": "COc1ccc2c(c1)[C@@]1(C[C@@H]1c1ccc3c(/C=C/c4ccc(CN5C[C@@H](C)O[C@@H](C)C5)cc4)n[nH]c3c1)C(=O)N2", "note": "[CAS1338800-06-8, (1S,2R)-2-[3-[(1E)-2-[4-[[(2R,6S)-2,6-dimethyl-4-morpholinyl]methyl]phenyl]ethenyl]-1H-indazol-6-yl]-5′-methoxy-spiro[cyclopropane-1,3′-[^3H]indol]-2′(1′H)-one]", "values": [{"measurement": "Proportion of CHGA-negative and Ki67-negative cells", "setting": "[1]; first experiment", "result": 11.4, "unit": "%"}, {"measurement": "Proportion of CHGA-negative and Ki67-positive cells", "setting": "[1]; first experiment", "result": 0.8, "unit": "%"}, {"measurement": "Proportion of insulin-positive and NKX6.1-positive cells", "setting": "[1]; first experiment", "result": 22.4, "unit": "%"}, {"measurement": "Proportion of CHGA-negative and Ki67-negative cells", "setting": "[1]; second experiment", "result": 12.4, "unit": "%"}, {"measurement": "Proportion of CHGA-negative and Ki67-positive cells", "setting": "[1]; second experiment", "result": 0.2, "unit": "%"}, {"measurement": "Proportion of insulin-positive and NKX6.1-positive cells", "setting": "[1]; second experiment", "result": 23.0, "unit": "%"}, {"measurement": "Proportion of CHGA-negative cells (both Ki67-positive and Ki67-negative) as compared with a control", "setting": "[1]; [3]", "result": "markedly decreased"}, {"measurement": "Proportion of the cells of interest (insulin-positive and NKX6.1-positive cells) as compared with a control", "setting": "[1]; [3]", "result": "markedly increased"}, {"measurement": "Proportion of CHGA-negative cells (both Ki67-positive and Ki67-negative) as compared with a control", "setting": "[2]", "result": "markedly decreased"}, {"measurement": "Proportion of insulin-positive (and NKX6.1-positive) cells as compared with a control", "setting": "[2]", "result": "markedly increased"}]}
